# According to patent US10660336B2 (priority 2014, dated 2020):
# Read-outs that look alike come from different tables or passages of the source.
# Assays:
# [1] = tested on: pepper mottle virus (PepMoV); set-up: species or system Capsicum anuum L.; details: in vivo
# tobacco mosaic virus = experiment: Half leaf method, anti-viral activity against tobacco mosaic virus (local lesion count); assay type: in vivo; details: concentration of 5 ppm or above; Nicotiana tabacum cv. Xanthi nc half leaf; 3 days after inoculation
# Experimental: A half leaf method was performed to determine an anti-viral activity against tobacco mosaic virus, which was provided from the plant virus genebank (PVGB), Seoul women's university, of the compounds which was determined to have the anti-viral activity against the pepper mottle virus in Example 3. The half leaf method utilizes features of producing black spots due to local lesions around the infected part by tobacco mosaic virus in Nicotiana tabacum cv. Xanthi nc which is a local lesion host. Top 3 leaves and 4 leaves of 7-8 normal leaves of the local lesion host were taken and carborundum was evenly sprayed throughout the leaves. A compound 1 (Trichodermin) sample at test concentrations dissolved in DMSO and the tobacco mosaic virus solution were mixed. Right half leaf of the leaf of the Nicotiana tabacum cv. Xanthi nc was inoculated with this mixture and the other left half leaf was inoculated with tobacco mosaic virus solution (control) using cotton swabs. After petiole of the leaf of the Nicotiana tabacum cv. […] After 3 days of inoculation, the number of local lesions was counted and 100-400 of lesions of […] control half leaf was only applied. Activity rate using the number of lesions was calculated by the following equation. […]
# [2] = tested on: pepper mottle virus (PepMoV); set-up: species or system Nicotiana benthamiana; details: in vivo
structure (smiles),measurement,setting,value
CC(=O)O[C@@H]1C[C@H]2O[C@@H]3C=C(C)CC[C@]3(C)[C@]1(C)[C@]21CO1 [Trichodermin],"spreading rate of the pepper mottle virus (green fluorescent protein in upper leaves under UV, viral RNA and coat protein)",[1],inhibits spreading rate of the pepper mottle virus
same,anti-viral activity against the tobacco mosaic virus (control rate from number of local lesions),tobacco mosaic virus,≥ 97%
same,"spreading rate of the pepper mottle virus (green fluorescent protein in upper leaves under UV, viral RNA and coat protein)",[2],inhibits spreading rate of the pepper mottle virus
